Data set [1] deals with chemotherapy-induced toxicities. To be noted: human, in vivo.
In data set [2] the test system is NSCLC adenocarcinoma patients.
Data set [3] concerns female adenocarcinoma patients. To be noted: double-blind, placebo-controlled trial, Japan.

As for disodium 2′-dithio-bis-ethane, in data set [1], the anemia entry is “reduced anemia”; the chemotherapy-induced kidney toxicity entry is given as “protection against chemotherapy-induced kidney toxicity”; the “neuropathy and other chemotherapy-induced toxicities” value is on record as “protect against neuropathy & other chemotherapy-induced toxicities”. Further, the “survival in all genders and smoking status groups” value in data set [2] (all genders and smoking status groups) is on record as “marginally increased survival”. Moreover, the “clinical efficacy endpoints and subgroup responses” value in data set [2] (background statement) is “did not meet clinical efficacy endpoints”. Also, in data set [2] (female non-smokers, increase from 13 months), the “survival in female non-smokers” value was 25 months. In data set [2] (females non-smokers), the “percentage of patients undergoing treatment failure (FIG. 3)” value is “the least”. The 2-year survival in data set [2] (females with advanced adenocarcinoma of the lung receiving paclitaxel/cisplatin) worked out at 51.4%. In addition, the overall survival in data set [2] (females with advanced adenocarcinoma of the lung receiving paclitaxel/cisplatin, subgroup of 114 female patients, retrospective analysis) turned out to be 25.0 months. In addition, in data set [2] (females, non-smokers and female non-smokers receiving Cisplatin/Paclitaxel), the “overall survival benefit (FIG. 1)” value is recorded as “remarkable survival benefit”. The “percentage of patients undergoing treatment failure (FIG. 2)” value in data set [2] (non-smokers) is “the least”. Moreover, in data set [2] (subgroup of 114 female patients, retrospective analysis, p-value=0.0477), the “HR (overall survival)” value stood at 0.579. The “survival result in female adenocarcinoma patients” value in data set [3] was “Consistent statistically significant results”.

The values are drawn from patent US20220168258A1, “METHOD FOR TREATING FEMALE NON-SMOKERS WITH NON-SMALL CELL LUNG CANCER” (Lantern Pharma Inc., priority 2019, published 2022).
